# Entries after “also recorded” stand apart in the source; their conditions may differ. Ends that are not written are not given here. Peptide text beside a SMILES is read from it. * marks the point of attachment. X1 = CN(C)c1ccc2c(c1)Oc1cc(N(C)C)ccc1C21OC(=O)c2cc(N3C(=O)CC(*)C3=O)ccc21
# Legend:
# [1] = target: T1, full-length RIα (Bos taurus, UniProt P00514); assay: Fluorescence anisotropy binding assay (Example 9); parameters: species or system bovine; settings: compared with the unsubstituted peptide
# T1 construct: Full-length bovine RIα was expressed in E. coli 222; made in house; host or cells: E. coli 222
# Method: (§1) Each peptide was fluorescently labeled using a 25 mM solution of tetramethylrhodamine-5-maleimide (catalog number T-6027; Molecular Probes, Eugene, Oreg.) dissolved in DMSO. The peptides were labeled by incubating with a three-fold molar excess of the label for 16 hr at 4° C. in 20 mM Tris, pH 7.0 and 1 mM tris-(2-carboxyethyl) phosphine, hydrochloride (TCEP) (non-thiol reducing agent, Molecular Probes). The sample was quenched with 1 mM, β-mercaptoethanol to bind to any unreacted maleimide and diluted with 0.1% TFA for purification by HPLC. The labeled peptides were resolved using a C18 column with a water/acetonitrile gradient containing 0.1% TFA. The concentration of each peptide was determined by absorbance at 541 nm after diluting into 100% methanol and using an extinction coefficient of 91,000 M^−1 cm^−1 for absorbance of the rhodamine label at 541 nm (Molecular Probes Catalog). The peptides were stored at 4° C. in 50% acetonitrile.
# (§2) Full-length murine RIIα was expressed in E. coli BL21 (DE3). Full-length bovine RIα was expressed in E. coli 222. The proteins were purified as previously described using a cAMP affinity resin (Hamuro et al. (2002) J. Mol. Biol., 321:703). The protein concentrations were determined using the following extinction coefficients at 280 nm, which were calculated using a standard concentration of protein calibrated using quantitative amino acid analysis: RIα 52,603 M^−1 cm^−1 and RIIα 62,456 M^−1 cm^−1. The proteins were stored at 4° C. in 50 mM MES pH 5.8, 50 mM NaCl, 2 mM EDTA, 2 mM EGTA, 2 mM DTT.
# (§3) Binding of each fluorescently labeled peptide to the regulatory subunits was monitored using fluorescence anisotropy. RIα and RIIα were serially diluted beginning at 1 μM and 0.1 μM, respectively, into 10 mM HEPES pH 7.4, 0.15 M NaCl, 3 mM EDTA, 0.005% Surfactant P20 (Biacore) containing either 10 nM or 1 nM of fluorescently labeled peptide for RIα and RIIα, respectively. The samples were equilibrated for at least 1 hour at room temperature and fluorescence anisotropy monitored using a Fluoromax-2 (Jobin Yvon Horiba, SPEX Division, Edison, N.J.) equipped with Glan-Thompson polarizers. The rhodamine-labeled peptide was excited at 541 nm (5-10 nm bandpass) and emission monitored at 575 nm (5-10 nm bandpass). The anisotropy was calculated directly with the Fluoromax software using the following equation: r=(IVV−G*IVH)/(IVV+2G*IVH) (1) where r is the steady state anisotropy, IVV is the fluorescence intensity with the excitation and emission polarizers oriented in the vertical position (0° from normal), IVH is the fluorescence intensity with the excitation polarizer in the vertical position and the emission polarizer oriented in the horizontal position (90°) relative to the excitation polarizer, G is the monochromator grating factor which is equal to (IHV/IHH), with the first subscript indicating the position of the excitation polarizer and the second subscript indicating position of the emission polarizer. Three separate binding experiments were averaged and fit to a 1:1 binding model using the non-linear regression application in GraphPad Prism version 3.00 (GraphPad Software, San Diego, Calif.).
# [2] = target: T2, full-length RIIα (Mus musculus, UniProt P12367); assay: Fluorescence anisotropy binding assay (Example 9); parameters: species or system murine; settings: compared with the unsubstituted peptide
# T2 construct: Full-length murine RIIα was expressed in E. coli BL21 (DE3); made in house; host or cells: E. coli BL21 (DE3)
# Method: as §1, §2, §3
# [3] = target: T3, GFP-RIα (Bos taurus, UniProt P00514); assay: Co-localization with mitochondria-targeted Flag-tagged AKB domain constructs in 10T(1/2) cells (Example 10); type: cell-based, bovine; settings: mutations of Table 7 in AKB domain of C-terminal 156 residues of mouse D-AKAP2, mitochondria-targeted
# T3 construct: Full-length bovine RIα and mouse RIIα were fused with green fluorescent protein (GFP) by subcloning into pEGFPN1; expressed in transfected cells; host or cells: 10T(1/2) cells
# Method: (§4) To test the ability of the mutations set forth in Table 7 [AKB(dual), AKB(RI), AKB(RII) and AKB(null)] to co-localize with selected PKA isoforms in cells, a flag-tagged AKB domain construct targeted to the mitochondria was prepared using the AKB domain and a mitochondria targeting sequence from D-AKAP1 as set forth in Example 3. The respective mutations were then incorporated into the AKB domain of D-AKAP2 to test for selectivity in the cell. The targeting constructs of the AKB domain were made by fusing the C-terminal 156 residues of mouse D-AKAP2 with the N-terminal mitochondrial-targeting domain of D-AKAP1 (residues 1-30 of D-AKAP1a). After adding a flag tag to the C-terminus, the constructs were sub-cloned into the pCI vector (Promega, Madison, Wis.). The mutations of the AKB domain corresponding to those set forth in Table 7 herein were made with the QuickChange mutagenesis method (Makarova et al. (2000) Biotechniques, 29:970-972). Full-length bovine RIα and mouse RIIα were fused with green fluorescent protein (GFP) by subcloning into pEGFPN1 (Clontech, Palo Alto, Calif.). Equal amounts of the targeting constructs and either GFP-RIα or GFP-RIIα constructs were co-transfected into 10T(1/2) cells using Lipofectamin (Invitrogen, Carlsbad, Calif.). The AKB domain was detected by immuno-staining with monoclonal antibodies against the Flag-tag (Kodak, Rochester, N.Y.) followed by a rhodamine-conjugated secondary antibody (Jackson Lab, Bar Harbor, Me.). The cells were imaged using a radiance confocal microscope (BioRad, Hercules, Calif.).
# [4] = target: T4, GFP-RIIα (Mus musculus, UniProt P12367); assay: as above; type: cell-based; settings: mutations of Table 7 in AKB domain of C-terminal 156 residues of mouse D-AKAP2, mitochondria-targeted
# T4 construct: Full-length bovine RIα and mouse RIIα were fused with green fluorescent protein (GFP) by subcloning into pEGFPN1; expressed in transfected cells; host or cells: 10T(1/2) cells
# Method: as §4
# [5] = target: RIα (Bos taurus, UniProt P00514); assay: Fluorescence anisotropy binding of labeled 27-mer AKB Ile/Val peptides (Example 2); settings: in vitro; 10 nM labeled peptide
# Method: To assess the magnitude of the affinity difference, binding of both Ile/Val variants to the R-subunit isoforms of PKA was analyzed in a quantitative assay. Twenty-seven residue peptides containing the two AKB domain Ile/Val variants (SEQ ID NOs:1 and 2, respectively) of D-AKAP2 with a C-terminal cysteine were synthesized by SynPep Corporation (Dublin, Calif.). The peptides were HPLC (high performance liquid chromatography) purified and mass spectrometry checked. Both peptides were labeled with tetramethyl rhodamine-5-maleiamide (Molecular Probes, Eugene, Oreg.) at the cysteine residue and HPLC purified. Increasing concentrations of RIα and RIIβ, respectively, were equilibrated with 10 nM of peptide for at least one hour at room temperature in 10 mM HEPES, 150 mM NaCl, 3 mM EDTA, 0.005% polysorbate 20. […] Fluorescence anisotropy was monitored using a Fluoromax-2 (Spex, Jobin Yvon Horiba, Edison, N.J.) equipped with polarizers. The fluorophore was excited at 541 nm (5-10 nm bandpass) and emission was monitored at 575 nm (5-10 nm bandpass). […]
# Peptides of each AKB Ile/Val variant (SEQ ID NOs:1 and 2) were synthesized and fluorescence-labeled. Binding of the labeled peptides to the regulatory subunit isoforms was monitored using a fluorescence assay in which binding of the peptide was proportional to an increase in steady state anisotropy. […]
# T2 sequence (P12367 whole entry): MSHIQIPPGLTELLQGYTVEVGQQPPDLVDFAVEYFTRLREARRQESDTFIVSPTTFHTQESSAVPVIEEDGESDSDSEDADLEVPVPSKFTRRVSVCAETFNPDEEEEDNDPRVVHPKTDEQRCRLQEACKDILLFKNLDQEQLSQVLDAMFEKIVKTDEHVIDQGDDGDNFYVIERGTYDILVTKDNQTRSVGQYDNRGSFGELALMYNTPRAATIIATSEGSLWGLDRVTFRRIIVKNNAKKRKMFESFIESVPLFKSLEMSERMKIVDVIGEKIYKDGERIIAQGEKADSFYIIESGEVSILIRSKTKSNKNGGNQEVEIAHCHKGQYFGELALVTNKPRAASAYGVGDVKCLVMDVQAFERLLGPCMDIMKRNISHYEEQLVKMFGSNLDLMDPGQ
# T4 sequence (P12367 whole entry, the tested form may be a part): as the sequence (P12367 whole entry) above
# T1 sequence (P00514 whole entry): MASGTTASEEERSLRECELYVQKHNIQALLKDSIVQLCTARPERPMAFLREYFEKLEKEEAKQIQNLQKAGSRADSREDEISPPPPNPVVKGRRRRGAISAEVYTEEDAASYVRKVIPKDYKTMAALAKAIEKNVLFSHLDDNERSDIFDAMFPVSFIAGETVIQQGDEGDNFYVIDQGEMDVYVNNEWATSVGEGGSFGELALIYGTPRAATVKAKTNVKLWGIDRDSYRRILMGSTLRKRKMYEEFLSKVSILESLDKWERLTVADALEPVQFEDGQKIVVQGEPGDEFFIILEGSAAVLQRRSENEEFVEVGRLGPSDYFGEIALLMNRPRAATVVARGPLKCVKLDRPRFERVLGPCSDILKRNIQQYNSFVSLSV
# T3 sequence (P00514 whole entry, the tested form may be a part): as the sequence (P00514 whole entry) above
# Sequence of RIα (P00514 whole entry, the tested form may be a part, canonical isoform): as the sequence (P00514 whole entry) above
Compound,"binding to RIα, in words [1]","binding to RIIα, in words [2]",recruitment of GFP-RIα to the mitochondria [3],recruitment of GFP-RIIα to the mitochondria [4],"binding to RIα, in words ([1]; listed as SEQ ID NO:103)","binding to RIIα, in words ([2]; listed as SEQ ID NO:103)",binding affinity to RIα compared to the Ile variant [5]
CC[C@H](C)[C@H](NC(=O)[C@H](CCCCN)NC(=O)[C@H](Cc1c[nH]c2ccccc12)NC(=O)[C@H](CC(C)C)NC(=O)[C@H](CC(C)C)NC(=O)[C@H](CCC(=O)O)NC(=O)[C@H](CCC(=O)O)NC(=O)[C@H](CCC(N)=O)NC(=O)[C@H](C)NC(=O)[C@H](CCC(=O)O)NC(=O)[C@H](CC(=O)O)NC(=O)[C@@H](NC(=O)[C@H](CC(N)=O)NC(=O)CNC(=O)[C@H](CCC(N)=O)NC(=O)[C@@H](N)C(C)C)[C@@H](C)O)C(=O)N[C@@H](C)C(=O)N[C@@H](CCCCN)C(=O)N[C@@H](CCSC)C(=O)N[C@H](C(=O)N[C@H](C(=O)N[C@@H](CO)C(=O)N[C@@H](CC(=O)O)C(=O)N[C@H](C(=O)N[C@@H](CCSC)C(=O)N[C@@H](CCC(N)=O)C(=O)N[C@@H](CCC(N)=O)C(=O)N[C@@H](CSC1CC(=O)N(c2ccc3c(c2)C(=O)OC32c3ccc(N(C)C)cc3Oc3cc(N(C)C)ccc32)C1=O)C(N)=O)C(C)C)C(C)C)[C@@H](C)CC (stereo partly drawn) [AKB (RII)] (H-VQGNTDEAQEELLWKIAKMIVSDVMQQC(X1)-NH2; N-terminus assumed),dramatically affected binding to RIα,did not affect binding to RIIα,incapable of recruiting GFP-RI,recruited RII to the mitochondria,,,
CC[C@H](C)[C@H](NC(=O)[C@H](CCCCN)NC(=O)[C@H](Cc1c[nH]c2ccccc12)NC(=O)[C@H](C)NC(=O)[C@H](CC(C)C)NC(=O)[C@H](CCC(=O)O)NC(=O)[C@H](CCC(=O)O)NC(=O)[C@H](CCC(N)=O)NC(=O)[C@H](C)NC(=O)[C@H](CCC(=O)O)NC(=O)[C@H](CC(=O)O)NC(=O)[C@@H](NC(=O)[C@H](CC(N)=O)NC(=O)CNC(=O)[C@H](CCC(N)=O)NC(=O)[C@@H](N)C(C)C)[C@@H](C)O)C(=O)N[C@@H](CCC(=O)O)C(=O)N[C@@H](CCCCN)C(=O)N[C@@H](CCSC)C(=O)N[C@H](C(=O)N[C@@H](Cc1c[nH]c2ccccc12)C(=O)N[C@@H](CO)C(=O)N[C@@H](CC(=O)O)C(=O)N[C@H](C(=O)N[C@@H](CCSC)C(=O)N[C@@H](CCC(N)=O)C(=O)N[C@@H](CCC(N)=O)C(=O)N[C@@H](CSC1CC(=O)N(c2ccc3c(c2)C(=O)OC32c3ccc(N(C)C)cc3Oc3cc(N(C)C)ccc32)C1=O)C(N)=O)C(C)C)[C@@H](C)CC (stereo partly drawn) [AKB (null)] (H-VQGNTDEAQEELAWKIEKMIWSDVMQQC(X1)-NH2; N-terminus assumed),bound very poorly,could not be detected,could not co-localize either GFP-RIα or RIIα,could not co-localize either GFP-RIα or RIIα,,,
CC[C@H](C)[C@H](NC(=O)[C@H](CCCCN)NC(=O)[C@H](Cc1c[nH]c2ccccc12)NC(=O)[C@H](C)NC(=O)[C@H](CC(C)C)NC(=O)[C@H](CCC(=O)O)NC(=O)[C@H](CCC(=O)O)NC(=O)[C@@H](N)Cc1ccccc1)C(=O)N[C@@H](C)C(=O)N[C@@H](CCCCN)C(=O)N[C@@H](CCSC)C(=O)N[C@H](C(=O)N[C@@H](Cc1c[nH]c2ccccc12)C(=O)N[C@@H](CO)C(=O)N[C@@H](CC(=O)O)C(=O)N[C@H](C(=O)N[C@@H](Cc1ccccc1)C(=O)N[C@@H](CCC(N)=O)C(=O)N[C@@H](CCC(N)=O)C(=O)N[C@@H](CSC1CC(=O)N(c2ccc3c(c2)C(=O)OC32c3ccc(N(C)C)cc3Oc3cc(N(C)C)ccc32)C1=O)C(N)=O)C(C)C)[C@@H](C)CC (stereo partly drawn) [PV-38] (H-FEELAWKIAKMIWSDVFQQC(X1)-NH2; N-terminus assumed),dramatically enhanced binding to RIα,substantially no binding; also recorded: further disrupting RIIα binding,only localized GFP-RI to the mitochondria,GFP-RII was not localized,enhanced binding to RIα by a factor of ten,considerable reduction in affinity to RIIα,
VQGNTDEAQEELAWKIAKMIVSDVMQQ (not fully specified (N-terminus); listed as Homo sapiens) [SEQ ID NO:2],,,,,,,nearly three-fold increase in binding affinity
